Target: SIRT6 (Homo sapiens, UniProt Q8N6T7)
Assay: SIRT6 enzymatic activity assay with fluorophore (AMC)-labeled Lysin-myristoylated histone H3 peptide (de-myristoylation, trypsin release)
Format: biochemical
Design: six-histidine tag; made in house; host or cells: Escherichia coli BL21
Conditions: for % activity Max. conc. 100 uM: compound 100 uM; for % activity Max. conc. 100 uM / % activity 20 uM: percentage of signal increase relative to control wells, Tables 1-2; for % Activity: amount tested 20 uM, Example 5, Table 9; for % activity 20 uM: compound 20 uM
Protocol: Human recombinant SIRT6 (sequence identifier: CAG33481.1; GI:4814651) was expressed in large scale in Escherichia coli strain BL21 as a six-histidine-tagged protein, after transformation of the expression plasmid pET28-SIRT6. The SIRT6 enzyme was purified from the bacteria culture broth in a two-step strategy. The first purification step was carried out by cation exchange chromatography on a HiTrap CM-Sepharose column (GE Healthcare) using an FPLC system. The second purification step was performed by immobilized metal ion affinity chromatography (IMAC) using a cobalt affinity column (Clontech).
The enzymatic activity assay is carried out in 96 or 384-well microplates using the purified recombinant SIRT6 and a fluorophore-labeled peptide substrate: 7-amino-4-methylcoumarin (AMC) that is quenched through conjugation to the C-terminal end of a Lysin-myristoylated histone H3 peptide. The activity assay procedure requires two steps, both performed in the same microplate. In the first step, the substrate is incubated with the purified SIRT6 protein along with the co-substrate nicotinamide adenine dinucleotide (NAD+). Upon de-myristoylation, the liberated ε-amino group of the lysine becomes a trypsin substrate. Treatment with trypsin in the second step releases the fluorophore resulting in an increase in fluorescence. Fluorescence intensity is measured using a fluorescent plate reader (excitation and emission at 370 nm and 450 nm, respectively). The fluorescence signal is directly proportional to SIRT6 enzymatic activity.
In the primary screening, compounds from a library (ChemDiv Inc.) were tested at a single concentration of 20 micromolar for their potential to modulate SIRT6 enzymatic activity. The assay was carried out in 384-well black well plates and all liquid handling was done using a robotic liquid handler. Purified recombinant SIRT6 (1 micromolar) was pre-incubated with each compound (or DMSO in control wells) for 15 minutes at room temperature. The first stage of the assay was initiated by adding a ‘substrate solution’ containing the myristoylated histone H3 peptide and NAD+(for final concentrations of 25 micromolar and 20 micromolar, respectively). After one hour incubation at 37° C., a Trypsin solution (6 mg/mL) was added for 30 minutes at room temperature. Fluorescence intensity was measured using a fluorescent plate reader (Tecan) with excitation at 370 nm and emission at 450 nm. The effect of each tested compound was evaluated by the change in the fluorescence intensity compared to control wells. […] To validate the primary screening results, each of the primary “hits” was re-tested, first at concentration of 20 micromolar in duplicates and later at a serial dilution ranging from 100 to 0.2 micromolar in triplicates.
Results of Assay—The results of the assay are given below in Tables 1-3.
Additional molecules were tested according to the methods and materials of Example 1. The amount tested was 20 uM for each molecule.

Sequence of SIRT6 (Q8N6T7 whole entry): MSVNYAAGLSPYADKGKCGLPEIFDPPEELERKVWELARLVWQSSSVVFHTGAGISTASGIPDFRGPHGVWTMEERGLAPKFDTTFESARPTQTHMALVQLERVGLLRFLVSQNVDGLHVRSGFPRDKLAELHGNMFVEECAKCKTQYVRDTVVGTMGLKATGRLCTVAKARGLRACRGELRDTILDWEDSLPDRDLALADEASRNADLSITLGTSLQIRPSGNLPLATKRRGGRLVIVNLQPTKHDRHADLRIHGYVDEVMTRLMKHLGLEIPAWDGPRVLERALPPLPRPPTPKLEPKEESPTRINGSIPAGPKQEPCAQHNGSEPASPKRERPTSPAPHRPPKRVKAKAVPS

Row | % activity Max. conc. 100 uM | % Activity | % activity 20 uM | SMILES
1 | 142% | – | – | O=C(Nc1ccc2nnc(C3CCC3)n2c1)C1CC1 [M723-1459]
2 | – | 67% | – | CN1CCN(C(=O)C2CCN(c3nc4ccc(-c5ccccc5)nc4s3)CC2)CC1 [T387-0661]
3 | 110% | – | – | CCC(=O)Nc1ccc(-c2cc(C(=O)NCCCN3CCCCC3C)c3ccccc3n2)cc1 (centres unmarked) [L036-0163]
4 | 47% | – | – | Cc1noc(-c2cccc(OC3CN(C(=O)c4cccc5[nH]ccc45)C3)c2)n1 [S051-0094]
5 | 50% | – | 63% | CCCNC(=O)c1ccc(-c2ccc(N3CCCCC3)nc2)cc1 [M715-0111]
6 | 87% | – | 34% | C=C(Nc1cc(C)cc(C)c1)Nc1nnc(SCC2=CC(=C)N3C=C(C)C=CC3=N2)s1 [G755-0539]
7 | 87% | – | 61% | CCC(=O)Nc1ccc(-c2cc(C(=O)NCCCN3CCCC(C)C3)c3ccccc3n2)cc1 (centres unmarked) [L036-0174]
8 | – | 80% | – | CN(C)C(=O)C1CCN(c2nc3ccc(-c4cncnc4)nc3s2)CC1 [T387-0950]
9 | – | 396% | – | COC(=O)Cc1c(C)c2ccc(OC(=O)c3cccc(OC)c3)c(C)c2oc1=O [Y040-3572]
10 | – | 47% | – | CC1CCN(C(=O)C2CCN(c3nc4ccc(-c5ccncc5)nc4s3)CC2)CC1 [T387-1113]
11 | – | 30% | – | Cc1c(Cc2ccccc2)c(=O)oc2c(C)c(OC(=O)C3CC3)ccc12 [Y040-1980]
12 | 37% | – | – | COc1cc(NC(=O)c2csc(-c3cn(C)c4ncccc34)n2)cc(OC)c1 [P613-0273]
13 | 226% | – | – | C=C1Oc2ccc(C)cc2-c2oc(NCCOC)c(-c3ccc(OCC)cc3)c21 [F025-0098]
14 | – | 84% | – | Cc1ccccc1C1N=C2C=NC=CN2C1NCCC(=O)NCc1cccs1 (centres unmarked) [P349-2111]
15 | – | 21% | – | COc1ccc(C(=O)Oc2ccc3c(C)c(Cc4ccccc4)c(=O)oc3c2C)cc1 [Y040-7713]
16 | – | 61% | – | Cc1c(Cc2ccccc2)c(=O)oc2cc(OC(=O)C3CCCCC3)ccc12 [Y040-7756]
17 | 175% | – | – | C=C(C)C1Cc2cc(C(F)(F)F)ccc2N2CCCCC12 (centres unmarked) [V004-5575]
18 | – | 41% | – | Cc1c(Cc2ccccc2)c(=O)oc2c(C)c(OC(=O)c3ccccc3)ccc12 [Y040-7711]

Row | % activity Max. conc. 100 uM | % Activity | % activity 20 uM | SMILES
19 | – | 71% | – | Cc1c(OC(=O)C2CCCCC2)ccc2c3c(c(=O)oc12)CCCC3 [Y040-0748]
20 | – | 69% | – | CCN1CCN(C(=O)C2CCN(c3nc4ccc(-c5ccccc5)nc4s3)CC2)CC1 [T387-0670]
21 | 324% | – | 154% | C=C(Oc1ccc2cnccc2c1)c1sc2ccccc2c1N [G891-0058]
22 | – | 61% | – | Cc1cc(C)c2sc(N(Cc3cccnc3)C(=O)CCS(=O)(=O)c3ccccc3)nc2c1 [G856-7064]
23 | – | 33% | – | COc1cccc(C(=O)Oc2ccc3c4c(c(=O)oc3c2C)CCCC4)c1 [Y040-0750]
24 | – | 70% | – | Cc1ccc2sc(N(CCCN(C)C)C(=O)CCS(=O)(=O)c3ccccc3)nc2c1C [E677-2159]
25 | 111% | – | – | COCCNc1oc2c(c1-c1ccc(C)cc1)c(=O)oc1c(C)cccc12 [F025-0102]
26 | – | 115% | – | Cc1cc(C)c2sc(N(CCCN(C)C)C(=O)CCS(=O)(=O)c3ccccc3)nc2c1 [E677-2413]
27 | – | 45% | – | COc1ccc(CN2CCN(C(=O)c3ccc(N4CCc5ccccc54)s3)CC2)c(OC)c1OC [G122-1838]
28 | – | 49% | – | CN(C)CCNC(=O)C1CCN(c2nc3ccc(-c4cncnc4)nc3s2)CC1 [T387-0941]
29 | – | 63% | – | CCCCCCc1c(C)c2cc(C)c(OC(=O)c3cccc(OC)c3)cc2oc1=O [Y040-7591]
30 | 159% | – | 91% | CCOCCCNc1nc2ccccc2nc1S(=O)(=O)Cc1ccc(Cl)cc1 [L103-0696]
31 | 22% | – | 36% | Cc1nc(Cc2ccc(F)cc2)sc1C(=O)Nc1ccc(F)cc1F [M830-6517]
32 | – | 212% | – | Cc1c(Cc2ccccc2)c(=O)oc2cc(OC(=O)c3ccccc3)ccc12 [Y040-7755]
33 | 42% | – | 34% | CCCNc1nc2ccccc2nc1S(=O)(=O)Cc1ccc(Cl)cc1 [L103-0652]
34 | – | 65% | – | COCCCNC(=O)C1CCN(c2nc3ccc(-c4cncnc4)nc3s2)CC1 [T387-0917]
35 | – | 50% | – | CCOc1ccccc1C(=O)Oc1ccc2c(C)c(CC(=O)OC)c(=O)oc2c1C [Y040-3573]

Second part, the compound before the results:

Row | SMILES | % activity Max. conc. 100 uM | % Activity | % activity 20 uM
36 | Cc1c(OC(=O)c2ccccc2)ccc2c3c(c(=O)oc12)CCC3 [4986-0081] | – | 41% | –
37 | COC(=O)COc1cccc2c1ccc1c3c(c(=O)oc12)CCCC3 [3532-0820] | – | 30% | –
38 | CCC(=O)Oc1ccc2c(C)c(Cc3ccccc3)c(=O)oc2c1C [2259-4063] | – | 273% | –
39 | C=C(CN1c2ccccc2C(C)(C)C12C=Cc1c(ccc3ccccc13)C2)NC (centres unmarked) [8008-8279] | 27% | – | –
40 | O=C(Oc1ccc2c3c(c(=O)oc2c1)CCC3)c1cccs1 [2712-4058] | – | 455% | –
41 | O=C(NCc1cccc(Cl)c1)c1noc2c1CSc1ccccc1-2 [E146-0990] | 137% | – | –
42 | COc1cccc2sc(N(CCCN(C)C)C(=O)CCOc3ccccc3)nc12 [E677-1072] | – | 117% | –
43 | COc1cccc2sc(N(CCCN(C)C)C(=O)CCSc3ccccc3)nc12 [E677-1137] | – | 111% | –
44 | CCCc1ccc(-c2ccc(C(=O)Nc3nc4ccc(C)cc4s3)cc2)nc1 [0703-6407] | – | 40% | –
45 | COc1ccc(-c2csc3c(NN)ncnc23)cc1 [C201-1744] | 22% | – | –
46 | COc1ccc(C(=O)Oc2ccc3c4c(c(=O)oc3c2)CCC4)cc1 [2712-3502] | – | 264% | –
47 | O=C(c1ccccc1Br)N1C(=O)c2ccccc2S1(=O)=O [8006-3826] | – | 56% | –
48 | COc1ccc(C(=O)Oc2ccc3c4c(c(=O)oc3c2)CCC4)cc1OC [2712-4069] | – | 294% | –
49 | CCCCCCOc1ccc(C(=O)Nc2nc3ccc(OC)cc3s2)cc1 [0938-8060] | – | 47% | –
50 | Cc1cc(NC(=O)CSc2nnc(-c3sc4ncccc4c3N)n2C)ccc1Cl [D549-0050] | 47% | – | –
51 | CCN(CC)CCN(C(=O)CCOc1ccccc1)c1nc2c(F)cc(F)cc2s1 [E676-5517] | – | 38% | –
52 | Cc1ccc(COc2ccc3c4c(c(=O)oc3c2C)CCC4)cc1 [3338-2074] | – | 21% | –

Row | SMILES | % activity Max. conc. 100 uM | % Activity | % activity 20 uM
53 | Cc1nc2cc(-c3ccccc3)nn2c(C(C)(C)C)c1C [5197-0134] | – | 21% | –
54 | CN(C)CCCN(C(=O)CCOc1ccccc1)c1nc2ccc(Br)cc2s1 [E677-0691] | – | 28% | –
55 | COC(=O)CSc1ccc(C#N)c(SCC(=O)OC)c1 [8012-3471] | – | 23% | –
56 | O=c1[nH]c2ccc(Cl)cc2c(-c2ccccc2)c1Nc1ccc(Oc2ccccc2)cc1 [8013-3307] | 86% | – | 24%
57 | CCOc1cccc2sc(N(CCN(C)C)C(=O)CCS(=O)(=O)c3ccccc3)nc12 [E676-1270] | – | 61% | –
58 | Cc1nc(-c2cccc(F)c2)c(N)c(N(C)C2CCN(C)CC2)n1 [V030-4128] | 210% | – | –
59 | COc1ccc(-c2nn3c(C)nnc3s2)cc1N [8018-6508] | 18% | – | –
60 | N#Cc1c(N)oc(C2=CC=CC2)c1-c1ccco1 [8014-9229] | 48% | – | –
61 | CC1=NCC(c2ccc(O)cc2O)=C1c1ccc(Cl)cc1 [8020-1200] | 94% | – | –
62 | CCN(CC)CCN(C(=O)CCS(=O)(=O)c1ccccc1)c1nc2c(C)cccc2s1 [E676-3810] | – | 121% | –
63 | CCc1nnc(NC(=O)CSc2nc(N)nc(SC)c2C#N)s1 [8001-8196] | 25% | – | –
64 | Cn1c(-c2ccc3[nH]c(-c4ccc(N)cc4)nc3c2)nc2cc(N)ccc21 [6843-3168] | 162% | – | –
65 | CC1=CC(C)(C)Nc2ccc(OC(=O)c3cccs3)cc21 [4477-2607] | 54% | – | –
66 | CN(C)CCCN(C(=O)CCS(=O)(=O)c1ccccc1)c1nc2ccc(F)cc2s1 [E677-0508] | – | 53% | –
67 | Cc1ccnc(NC(c2ccc(Cl)cc2Cl)c2ccc3cccnc3c2O)c1 (centres unmarked) [4896-3248] | 28% | – | 30%
68 | CN(C)CCCN(C(=O)CCOc1ccccc1)c1nc2ccc(Cl)cc2s1 [B677-0564] | – | 28% | –

Reference: US11278525B1, “Further molecules, compositions and methods for modulation of SIRT6” (SirTLab Corporation, priority 2017, dated 2022)
